Data on 37 compounds can be found in PubChem BioAssay (NCI).

Several values for one entry are separate records, joined by “and”; a condition that tells them apart may be missing. Equal entries are not always repeated.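 96-well plates; 48 h exposure; 5 concentrations. Endpoints by linear interpolation between flanking doses. Not reached: highest tested concentration assigned. GI50: concentration for 50% inhibition of growth. TGI marks complete inhibition of growth.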

Among the test systems are BT-549 breast; XF 498 CNS; M19-MEL melanoma; HOP-18 NSCLC; RXF-631 renal; MDA-N.
Assay in all cases: NCI-60 cell line screen, 48 h

Regarding `O=C(CN(/C=C/C(=O)C(F)(F)F)c1ccc(Cl)cc1)c1ccccc1`, in the assay with BT-549 breast, the GI50 was 20500 nM and the TGI came to 41.4 µM.
On to `CC(=O)NC1=C(NCCN(C)C)C(=O)c2ccccc2C1=O`, for which the TGI in the assay with XF 498 CNS worked out at 35.1 µM; in the assay with M19-MEL melanoma it was 14.3 µM.
With `COc1c(C(=O)c2ccc([N+](=O)[O-])cc2)cc(C(C)(C)C)cc1C(C)(C)C`, the TGI in the assay on XF 498 CNS is 55.1 µM; in the assay on HOP-18 NSCLC, more than 100 µM; in the assay with M19-MEL melanoma it was more than 100 µM.
Take `Cc1ccccc1-n1ncc(C(=O)c2ccccc2)c1N`: in the assay on BT-549 breast, the GI50 was more than 25000 nM and the TGI is more than 25 µM.
Taken in the same sequence, the figures for `O=C1c2nsnc2C(=O)c2c(F)c(F)c(F)c(F)c21` were 1490 nM and 2.83 µM.
`COC(=O)C(Cc1cc(OC)c(OC)c(OC)c1)c1ccc(OC)cc1` (stereo unspecified): the TGI in the assay on HOP-18 NSCLC, with M19-MEL melanoma and in the assay on RXF-631 renal was more than 100 µM each time.
On to `OCC(O)C(O)C(O)c1nn(-c2ccc(Cl)cc2)c2nc3cc(Cl)c(Cl)cc3nc12` (stereo unspecified), for which the values for the TGI with XF 498 CNS, with HOP-18 NSCLC and with M19-MEL melanoma were 27.4 µM, more than 100 µM and more than 100 µM, respectively.
In the case of `Cc1ccc(S(=O)(=O)N2CCSCCN(S(=O)(=O)c3ccc(C)cc3)CCN(S(=O)(=O)c3ccc(C)cc3)CC2)cc1`, the TGI in the assay on MDA-N was more than 100 µM; in the assay with BT-549 breast it was 70.5 µM.
`COc1ccc(C(SCC(N)C(=O)O)(c2ccccc2)c2ccccc2)cc1` (stereo unspecified): in the assay on BT-549 breast, the GI50 is 2720 nM and the TGI is more than 100 µM.
As for `COC(=O)C(=O)C(C(=O)C(=O)Nc1nc2ccc(C)cc2s1)c1nc2ccc([N+](=O)[O-])cc2[nH]c1=O` (stereo unspecified), the TGI in the assay with MDA-N and in the assay with BT-549 breast was more than 100 µM throughout.
As to `CCc1c(Cc2[nH]c(Cc3[nH]c(C=O)c(C)c3CC)c(CC)c2CC)[nH]c(C=O)c1C`, the TGI in the assay on XF 498 CNS, in the assay with HOP-18 NSCLC and with M19-MEL melanoma was more than 100 µM in each case.
For `Cc1ccc(NC(=O)C(=O)C(C#N)c2nc(-c3ccc(-c4ccccc4)cc3)cs2)c(C)c1` (stereo unspecified), the TGI in the assay with HOP-18 NSCLC and in the assay on M19-MEL melanoma was more than 100 µM in each case.
Take `C[C@]12CC[C@H](O)C[C@H]1CC[C@@H]1[C@@H]2CC[C@]2(C)[C@@H](C3=CC(=O)OC3)[C@@H](O)C[C@]12O`: the TGI with MDA-N stood at 5.7 µM; in the assay on BT-549 breast it was 7.32 µM.
Take `CNC(=O)OCc1c2ccncc2c(C)c2c1[nH]c1ccccc12`: the TGI in the assay on MDA-N turned out to be 1.73 µM; in the assay on BT-549 breast, 1.63 µM.
On to `COc1ccc2c(c1)[n+](=O)c(C(=O)c1ccco1)c(C(F)(F)F)n2[O-]`, for which, in the assay on BT-549 breast, the GI50 is 2640 nM and the TGI is 18.9 µM.
`COc1cc(OC)c(/C=C\c2ccnc3ccccc23)c(OC)c1`: the TGI in the assay on MDA-N came to 2.03 µM.
Consider `NNC(=O)CNC(=O)c1ccc(Cl)cc1Cl`, for which the TGI in the assay with XF 498 CNS, in the assay with HOP-18 NSCLC and in the assay on M19-MEL melanoma was more than 100 µM throughout.
As to `C=CC(C1=CC(=O)C(OC)=CC1=O)c1ccccc1` (stereo unspecified), the results for the TGI in the assay with MDA-N and with BT-549 breast were 31.6 µM and 29.9 µM, respectively.
For the compound `Cl.Fc1c[c-]c(-c2ccccn2)c(F)c1.[Pt].c1ccc(P(c2ccccc2)C([PH+](c2ccccc2)c2ccccc2)[PH+](c2ccccc2)c2ccccc2)cc1`, in the assay with BT-549 breast, the GI50 is 3240 nM and the TGI was found to be 17.1 µM.
On the same counts, the results for `CCN1C(=O)N(CC)C2Nn3c(s/c(=C\c4ccccc4Br)c3=O)=NC21` (stereo unspecified) are 3200 nM and 17.4 µM.
For `CC1C[C@H](C)CC(C(O)CC2CC(=O)N(Cc3ccccc3)C(=O)C2)C1O` (stereo partly specified), the TGI in the assay on HOP-18 NSCLC and in the assay on M19-MEL melanoma was more than 100 µM in each case.
With `Nc1nc2c(s1)CCc1c-2c(Br)n(Cc2ccccc2)c1Br`, in the assay on BT-549 breast, the GI50 was 15100 nM and the TGI turned out to be 30.2 µM.
On to `COC(=O)/C=C(\C(=O)OC)c1c2c3c(cc(OC)c(OC)c3c3ccccc13)CCN2C`, for which the TGI in the assay with HOP-18 NSCLC, with M19-MEL melanoma and in the assay with RXF-631 renal was more than 100 µM in each case.
`CC1COc2c(N3CCN(C)CC3)c(F)cc3c(=O)c(C(=O)O)cn1c23` (stereo unspecified): in the assay with BT-549 breast, the GI50 is more than 100000 nM and the TGI was more than 100 µM.
Regarding `COC(=O)/C(=N\Nc1nc(=S)[nH]n1N)C(C#N)c1ccccc1` (stereo unspecified), the TGI with HOP-18 NSCLC and in the assay with M19-MEL melanoma was more than 100 µM each time.
On to `CC(C)(C)C(=O)OCOP(=O)(OCOC(=O)C(C)(C)C)C1CC(O)N(O)C1=O` (stereo unspecified), for which, in the assay with BT-549 breast, the GI50 was 2960 nM and the TGI was determined as 8.63 µM.
Regarding `CC(=O)c1cc(C(=O)c2ccc3c(c2)Sc2ccccc2N3)c2c(C)cc(C)cn12`, in the assay on BT-549 breast, the GI50 was 368 nM and the TGI was more than 21.3 µM.
Consider `N/N=C(\C(=O)Nc1ccc(Cl)cc1Cl)C(c1cnc2ccccc2n1)[N+](=O)[O-]` (stereo unspecified), for which the TGI in the assay with MDA-N and in the assay on BT-549 breast was more than 100 µM throughout.
Consider `O=C1Nc2c(C(F)(F)F)cccc2[C@@]1(c1ccc(O)cc1)c1ccc(OC(F)(F)F)cc1`, for which, in the assay with BT-549 breast, the GI50 was less than 10 nM and the TGI is less than 0.0132 µM.
Consider `O=C(c1ccccc1)N1C2CCC1C(C(F)(F)F)=C2C(F)(F)F`, for which the TGI in the assay with HOP-18 NSCLC, in the assay on M19-MEL melanoma and in the assay on RXF-631 renal was more than 100 µM each time.
On to `CC1=NOC(=O)/C1=C/c1cccc2ccccc12`, for which the TGI in the assay on HOP-18 NSCLC and in the assay on M19-MEL melanoma was more than 100 µM in each case.
As for `O=C1CCC2CC(C(=O)c3ccccc3)CCC2CN1` (stereo unspecified) (tested in a mixture with another compound), the TGI with HOP-18 NSCLC and in the assay on M19-MEL melanoma was more than 100 µM each time.
Consider `COc1ccc2cc(-c3cc4c(oc3=O)-c3ccccc3OC4O)c(=O)oc2c1` (stereo unspecified), for which, in the assay on BT-549 breast, the GI50 was 14700 nM and the TGI worked out at 28.2 µM.
Turning to `C=CC(=O)NCc1cccc(Nc2ncc(Br)c(NCCCNC(=O)C3CCC3)n2)c1`, in the assay with BT-549 breast, the GI50 is 698 nM and 515 nM; the TGI was 2.55 µM and 2.42 µM.
For the compound `Cc1cccc2c1N(C(=O)/C=C\C(=O)O)C(c1c(C)[nH]c3ccccc13)C2` (stereo unspecified), the TGI worked out at 40.6 µM in the assay with XF 498 CNS and 53.1 µM in the assay with M19-MEL melanoma.
As to `O=C1NC(=O)C(=C/C=C/c2ccccc2)C(=O)N1`, in the assay with BT-549 breast, the GI50 is 2320 nM and the TGI was found to be 6.79 µM.
Turning to `CCOC(=O)C1C2CCC(C2)C1(CCl)C(=O)OCC` (stereo unspecified), the TGI in the assay with HOP-18 NSCLC, in the assay on M19-MEL melanoma and in the assay with RXF-631 renal was more than 100 µM in each case.
